The record followed here is patent publication US9266876B2 (Actelion Pharmaceuticals Ltd., priority 2012, dated 2016).

pIC50: −log10 of the molar value. Like-named read-outs stand apart in the source and are kept apart here.

The target of one assay is CXCR3 (Homo sapiens (Human), UniProt P49682). As to the kind of experiment: Receptor internalization assay. The class given is cell-based. Put shortly: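 In human whole blood, compounds were incubated with CXCL10 (9 nM final) for 30 min at 37 °C to drive receptor internalization, then stained with anti-CXCR3/CD3 antibodies and lysed of red cells. Flow cytometry measured mean surface CXCR3 fluorescence on CD3+ cells, and IC50 came from single-site dose-response fits.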
CXCR3, sequence (P49682 whole entry): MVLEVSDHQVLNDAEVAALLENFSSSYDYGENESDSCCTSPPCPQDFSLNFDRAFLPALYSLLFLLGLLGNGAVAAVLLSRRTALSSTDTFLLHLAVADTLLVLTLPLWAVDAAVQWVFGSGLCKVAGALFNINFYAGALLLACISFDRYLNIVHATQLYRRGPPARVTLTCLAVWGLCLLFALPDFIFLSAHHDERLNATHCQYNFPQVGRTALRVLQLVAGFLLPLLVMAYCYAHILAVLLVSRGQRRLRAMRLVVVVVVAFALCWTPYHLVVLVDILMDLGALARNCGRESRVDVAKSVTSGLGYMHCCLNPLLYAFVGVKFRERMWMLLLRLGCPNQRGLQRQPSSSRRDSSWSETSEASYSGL

The next assay deals with human CXCR3A (Homo sapiens (Human), UniProt P49682). As to the kind of experiment: FLIPR assay. The class given is cell-based. As to conditions: CHO-K1 cells expressing the human CXCR3A coupled to Galpha(16); CXCL10 agonist 20 nM; Fluo-4-AM fluorescence; mean values if determined several times. Put shortly:
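CHO-K1 cells expressing CXCR3A coupled to Gα16 were loaded with Fluo-4-AM for 1 h in Hepes-buffered HBSS, pH 7.4, with 5 mM probenecid. Compound dilutions were added on the FLIPR, followed by CXCL10 (added as a 20 nM solution). Baseline-subtracted peak fluorescence was fitted to a single-site curve for IC50.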

Setting [1] is: human whole blood, final CXCL10 concentration 9 nM, 30 min 37° C., CXCR3 cell surface expression on CD3 positive cells, flow cytometer, read-out: Internalization IC50.

human CXCR3A, sequence (P49682 whole entry): as above

One may read the pIC50 as −log10 of the IC50, conventionally taken in molar units. With `C[C@@H]1CN(c2scnc2-c2nc3ccccc3[nH]2)CCN1C(=O)Cn1cc2cccnc2n1` [Example 116, 1-{(R)-4-[4-(1H-Benzoimidazol-2-yl)-thiazol-5-yl]-2-methyl-piperazin-1-yl}-2-pyrazolo[3,4-b]pyridin-2-yl-ethanone], the pIC50 at CXCR3 (setting [1]) was 6.51; at human CXCR3A, 8.52.

`C[C@@H]1CN(c2scnc2-c2nc3ccccc3[nH]2)CCN1C(=O)Cc1cccc2ccccc12` [Example 118, 1-{(R)-4-[4-(1H-Benzoimidazol-2-yl)-thiazol-5-yl]-2-methyl-piperazin-1-yl}-2-naphthalen-1-yl-ethanone]: the pIC50 on CXCR3 (setting [1]) was 5.42; on human CXCR3A it was 8.52.

As to `C[C@@H]1CN(c2scnc2-c2nc3ccccc3[nH]2)CCN1C(=O)Cc1cccc2cccnc12` [Example 119, 1-{(R)-4-[4-(1H-Benzoimidazol-2-yl)-thiazol-5-yl]-2-methyl-piperazin-1-yl}-2-quinolin-8-yl-ethanone], the negative-log IC50 (pIC50) is 5.61 at CXCR3 (setting [1]) and 8.70 on human CXCR3A.

In the case of `C[C@@H]1CN(c2scnc2-c2nc3ccccc3[nH]2)CCN1C(=O)Cc1noc2ccccc12` [Example 130, 2-Benzo[d]isoxazol-3-yl-1-{(R)-4-[4-(1H-benzoimidazol-2-yl)-thiazol-5-yl]-2-methyl-piperazin-1-yl}-ethanone], the pIC50 at CXCR3 (setting [1]) was 5.57; at human CXCR3A, 8.52.

Regarding `C[C@@H]1CN(c2scnc2-c2nc3ccccc3[nH]2)CCN1C(=O)Cc1n[nH]c2ccccc12` [Example 132, 1-{(R)-4-[4-(1H-Benzoimidazol-2-yl)-thiazol-5-yl]-2-methyl-piperazin-1-yl}-2-(1H-indazol-3-yl)-ethanone], the results for the negative-log IC50 (pIC50) on CXCR3 (setting [1]) and at human CXCR3A were 5.20 and 8.52, respectively.

Turning to `C[C@@H]1CN(c2scnc2-c2nc3ccccc3[nH]2)CCN1C(=O)Cn1cnc2ccncc21` [Example 137, 1-{(R)-4-[4-(1H-Benzoimidazol-2-yl)-thiazol-5-yl]-2-methyl-piperazin-1-yl}-2-imidazo[4,5-c]pyridin-3-yl-ethanone], the pIC50 was 5.94 on CXCR3 (setting [1]) and 8.30 on human CXCR3A.

On to `C[C@@H]1CN(c2scnc2-c2nc3ccccc3[nH]2)CCN1C(=O)Cn1cnc2cnccc21` [Example 138, 1-{(R)-4-[4-(1H-Benzoimidazol-2-yl)-thiazol-5-yl]-2-methyl-piperazin-1-yl}-2-imidazo[4,5-c]pyridin-1-yl-ethanone], for which the negative logarithm of the IC50 (pIC50) on CXCR3 (setting [1]) is 5.96; at human CXCR3A it was 8.40.

For the compound `C[C@@H]1CN(c2scnc2-c2nc3ccccc3[nH]2)CCN1C(=O)CN1CCc2cccnc21` [Example 139, 1-{(R)-4-[4-(1H-Benzoimidazol-2-yl)-thiazol-5-yl]-2-methyl-piperazin-1-yl}-2-(2,3-dihydro-pyrrolo[2,3-b]pyridin-1-yl)-ethanone], the negative-log IC50 (pIC50) on CXCR3 (setting [1]) is 5.53; on human CXCR3A it was 8.70.

As for `C[C@@H]1CN(c2scnc2-c2nc3ccccc3[nH]2)CCN1C(=O)Cn1ccc2ccncc21` [Example 141, 1-{(R)-4-[4-(1H-Benzoimidazol-2-yl)-thiazol-5-yl]-2-methyl-piperazin-1-yl}-2-pyrrolo[2,3-c]pyridin-1-yl-ethanone], the negative-log IC50 (pIC50) is 6.44 at CXCR3 (setting [1]) and 9.70 at human CXCR3A.

In the case of `C[C@@H]1CN(c2scnc2-c2nc3ccccc3[nH]2)CCN1C(=O)Cn1ccc2ccnc(Cl)c21` [Example 142, 1-{(R)-4-[4-(1H-Benzoimidazol-2-yl)-thiazol-5-yl]-2-methyl-piperazin-1-yl}-2-(7-chloro-pyrrolo[2,3-c]pyridin-1-yl)-ethanone], the negative-log IC50 (pIC50) on CXCR3 (setting [1]) was 6.45; at human CXCR3A, 8.70.

Consider `C[C@@H]1CN(c2scnc2-c2nc3ccccc3[nH]2)CCN1C(=O)Cn1cc(Cl)c2cccnc21` [Example 143, 1-{(R)-4-[4-(1H-Benzoimidazol-2-yl)-thiazol-5-yl]-2-methyl-piperazin-1-yl}-2-(3-chloro-pyrrolo[2,3-b]pyridin-1-yl)-ethanone], for which the negative-log IC50 (pIC50) on CXCR3 (setting [1]) was 6.14; at human CXCR3A it was 9.00.

For the compound `Cc1nc(-c2nc3ccccc3[nH]2)c(N2CCN(C(=O)Cn3cnc4cccnc43)[C@H](C)C2)s1` [Example 144, 1-{(R)-4-[4-(1H-Benzoimidazol-2-yl)-2-methyl-thiazol-5-yl]-2-methyl-piperazin-1-yl}-2-imidazo[4,5-b]pyridin-3-yl-ethanone], the results for the negative logarithm of the IC50 (pIC50) on CXCR3 (setting [1]) and at human CXCR3A were 6.03 and 8.70, respectively.

In the case of `C[C@@H]1CN(c2sc(C(F)(F)F)nc2-c2nc3cc(Cl)ccc3[nH]2)CCN1C(=O)Cn1cnc2cccnc21` [Example 147, 1-{(R)-4-[4-(5-Chloro-1H-benzoimidazol-2-yl)-2-trifluoromethyl-thiazol-5-yl]-2-methyl-piperazin-1-yl}-2-imidazo[4,5-b]pyridin-3-yl-ethanone], the negative-log IC50 (pIC50) against CXCR3 is 7.41; on human CXCR3A, 9.00.

`C[C@@H]1CN(c2sc(-c3ccccc3F)nc2-c2nc3ccccc3[nH]2)CCN1C(=O)Cn1cnc2cccnc21` [Example 148, 1-{(R)-4-[4-(1H-Benzoimidazol-2-yl)-2-(2-fluoro-phenyl)-thiazol-5-yl]-2-methyl-piperazin-1-yl}-2-imidazo[4,5-b]pyridin-3-yl-ethanone]: the negative logarithm of the IC50 (pIC50) is 5.35 at CXCR3 (setting [1]) and 7.62 on human CXCR3A.

On to `Cc1cccc(-c2nc(-c3nc4ccccc4[nH]3)c(N3CCN(C(=O)Cn4cnc5cccnc54)[C@H](C)C3)s2)c1` [Example 149, 1-{(R)-4-[4-(1H-Benzoimidazol-2-yl)-2-m-tolyl-thiazol-5-yl]-2-methyl-piperazin-1-yl}-2-imidazo[4,5-b]pyridin-3-yl-ethanone], for which the negative logarithm of the IC50 (pIC50) on CXCR3 (setting [1]) was 5.29; on human CXCR3A, 7.80.

`Cc1ccc(-c2nc(-c3nc4ccccc4[nH]3)c(N3CCN(C(=O)Cn4cnc5cccnc54)[C@H](C)C3)s2)cc1` [Example 150, 1-{(R)-4-[4-(1H-Benzoimidazol-2-yl)-2-p-tolyl-thiazol-5-yl]-2-methyl-piperazin-1-yl}-2-imidazo[4,5-b]pyridin-3-yl-ethanone]: the values for the pIC50 on CXCR3 (setting [1]) and at human CXCR3A were 5.25 and 7.35, respectively.

In the case of `C[C@@H]1CN(c2scnc2-c2nc3ccccc3[nH]2)CCN1C(=O)CN1C(=O)C(C)(C)c2ccccc21` [Example 151, 1-(2-{(R)-4-[4-(1H-Benzoimidazol-2-yl)-thiazol-5-yl]-2-methyl-piperazin-1-yl}-2-oxo-ethyl)-3,3-dimethyl-1,3-dihydro-indol-2-one], the pIC50 on CXCR3 (setting [1]) was 6.26; at human CXCR3A it was 8.40.

Consider `Cc1cccc2oc(=O)n(CC(=O)N3CCN(c4scnc4-c4nc5ccccc5[nH]4)C[C@H]3C)c12` [Example 152, 3-(2-{(R)-4-[4-(1H-Benzoimidazol-2-yl)-thiazol-5-yl]-2-methyl-piperazin-1-yl}-2-oxo-ethyl)-4-methyl-3H-benzooxazol-2-one], for which the figures for the negative-log IC50 (pIC50) on CXCR3 (setting [1]) and at human CXCR3A were 6.18 and 8.52, respectively.

With `C[C@@H]1CN(c2scnc2-c2nc3ccccc3[nH]2)CCN1C(=O)Cn1c(=O)oc2cccc(F)c21` [Example 153, 3-(2-{(R)-4-[4-(1H-Benzoimidazol-2-yl)-thiazol-5-yl]-2-methyl-piperazin-1-yl}-2-oxo-ethyl)-4-fluoro-3H-benzooxazol-2-one], the values for the pIC50 on CXCR3 (setting [1]) and on human CXCR3A were 5.99 and 8.15, respectively.

Regarding `C[C@@H]1CN(c2scnc2-c2nc3ccccc3[nH]2)CCN1C(=O)Cn1c(CO)cc2cccnc21` [Example 154, 1-{(R)-4-[4-(1H-Benzoimidazol-2-yl)-thiazol-5-yl]-2-methyl-piperazin-1-yl}-2-(2-hydroxymethyl-pyrrolo[2,3-b]pyridin-1-yl)-ethanone], the negative logarithm of the IC50 (pIC50) at CXCR3 (setting [1]) was 5.52; at human CXCR3A, 7.85.

As for `C[C@@H]1CN(c2scnc2-c2nc3ccccc3[nH]2)CCN1C(=O)Cn1c(=O)oc2cccnc21` [Example 155, 3-(2-{(R)-4-[4-(1H-Benzoimidazol-2-yl)-thiazol-5-yl]-2-methyl-piperazin-1-yl}-2-oxo-ethyl)-3H-oxazolo[4,5-b]pyridin-2-one], the results for the pIC50 at CXCR3 (setting [1]) and on human CXCR3A were 5.96 and 8.22, respectively.

In the case of `COc1cc2nc(-c3ncsc3N3CCN(C(=O)Cn4cnc5cccnc54)[C@H](C)C3)[nH]c2cc1OC` [Example 158, 1-{(R)-4-[4-(5,6-Dimethoxy-1H-benzoimidazol-2-yl)-thiazol-5-yl]-2-methyl-piperazin-1-yl}-2-imidazo[4,5-b]pyridin-3-yl-ethanone], the negative-log IC50 (pIC50) on CXCR3 (setting [1]) is 5.46; at human CXCR3A, 8.30.

As for `C[C@@H]1CN(c2scnc2-c2nc3ccc(CO)cc3[nH]2)CCN1C(=O)Cn1cnc2cccnc21` [Example 159, 1-{(R)-4-[4-(6-Hydroxymethyl-1H-benzoimidazol-2-yl)-thiazol-5-yl]-2-methyl-piperazin-1-yl}-2-imidazo[4,5-b]pyridin-3-yl-ethanone], the figures for the pIC50 on CXCR3 (setting [1]) and at human CXCR3A were 5.81 and 9.00, respectively.

As for `C[C@@H]1CN(c2sc(C(F)(F)F)nc2-c2nc3ccc(CO)cc3[nH]2)CCN1C(=O)Cn1cnc2cccnc21` [Example 160, 1-{(R)-4-[4-(6-Hydroxymethyl-1H-benzoimidazol-2-yl)-2-trifluoromethyl-thiazol-5-yl]-2-methyl-piperazin-1-yl}-2-imidazo[4,5-b]pyridin-3-yl-ethanone], the figures for the pIC50 at CXCR3 (setting [1]) and at human CXCR3A were 7.04 and 8.70, respectively.

`COc1cc2nc(-c3nc(C(F)(F)F)sc3N3CCN(C(=O)Cn4cnc5cccnc54)[C@H](C)C3)[nH]c2cc1OC` [Example 161, 1-{(R)-4-[4-(5,6-Dimethoxy-1H-benzoimidazol-2-yl)-2-trifluoromethyl-thiazol-5-yl]-2-methyl-piperazin-1-yl}-2-imidazo[4,5-b]pyridin-3-yl-ethanone]: the negative-log IC50 (pIC50) was 6.84 on CXCR3 (setting [1]) and 8.70 on human CXCR3A.
